Test results as given in the NIST ThermoML archive (doi:10.1016/j.jct.2019.04.010).

Test: xn = mol fraction of the nth substance listed
Conditions: 100 kPa, Liquid; for mass density: Vibrating tube method; for viscosity: Concentric cylinders viscometry

CCCCn1cc[n+](C)c1.O=[N+]([O-])[O-] [1-butyl-3-methylimidazolium nitrate] + CC(C)O
Conditions | mass density, 308.15 K [kg/m3] | mass density, 313.15 K [kg/m3] | mass density, 318.15 K [kg/m3] | mass density, 323.15 K [kg/m3] | viscosity, 313.15 K [mPa·s] | viscosity, 318.15 K [mPa·s] | viscosity, 323.15 K [mPa·s]
x1 = 0.0815 | 841.9 | 837.9 | 833.7 | 829.5 | 2.53 | 2.25 | 2
x1 = 0.1596 | 894.8 | 891.1 | 887.1 | 883.3 | 3.95 | 3.53 | 3.09
x1 = 0.2405 | 940.1 | 936.5 | 932.8 | 929.2 | 5.7 | 5.15 | 4.61
x1 = 0.3495 | 989.6 | 986.4 | 982.9 | 979.5 | 8.96 | 7.91 | 7.17
x1 = 0.4405 | 1023.7 | 1020.6 | 1017.3 | 1014.1 | 12.29 | 10.89 | 9.8
x1 = 0.5607 | 1060.8 | 1057.8 | 1054.7 | 1051.7 | 17.93 | 15.75 | 14.17
x1 = 0.6506 | 1084.2 | 1081.3 | 1078.3 | 1075.4 | 23.42 | 20.46 | 18.14
x1 = 0.7413 | 1104.7 | 1101.7 | 1098.9 | 1096.1 | 30.6 | 26.05 | 23.09
x1 = 0.8515 | 1126 | 1123.2 | 1120.5 | 1117.8 | 42.3 | 35.1 | 30.31
x1 = 0.9396 | 1140.6 | 1137.8 | 1135 | 1132.5 | 58.7 | 45.9 | 37.81
x1 = 1 | 1149.3 | 1146.5 | 1143.8 | 1141.2 | 75.12 | 56.28 | 45.17
